In PubChem BioAssay AID1918953 (Molecular Pharmacology Branch, DTP, NCI, 2023):
Several values for one entry are separate records, joined by “and”; a condition that tells them apart may be missing. Equal values may be shown once. One block for each molecule: values may come before it.

System: MDA-MB-231 complex spheroid viability
Test: Anticancer human tumor MDA-MB-231/ATCC cell line growth inhibition;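 also: drug exposure lasted 7 days starting on day 3 of spheroid growth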
Conditions: for viability, T/C: stronger effect = lower value
How it was run: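 Multicellular complex spheroids of tumor cells with human endothelial cells (HUVEC) and mesenchymal stem cells; the LSD1 inhibitor iadademstat was combined with standard-of-care or investigational agents. Top concentration at or near clinical Cmax, half-log dilutions; final DMSO ≤0.25%.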

[1] = curve of first compound, second compound 0.1 µM
[2] = curve of first compound, second compound 0.316 µM
[3] = curve of first compound, second compound 1 µM
[4] = curve of first compound, second compound 3.16 µM
[5] = curve of first compound, second compound 10 µM
[6] = second compound 0.1 µM, first compound 0.000316 µM
[7] = second compound 0.1 µM, first compound 0.001 µM
[8] = second compound 0.1 µM, first compound 0.00316 µM
[9] = second compound 0.1 µM, first compound 0.01 µM
[10] = second compound 0.1 µM, first compound 0.0316 µM
[11] = second compound 0.1 µM, first compound 0.1 µM
[12] = second compound 0.316 µM, first compound 0.000316 µM
[13] = second compound 0.316 µM, first compound 0.001 µM
[14] = second compound 0.316 µM, first compound 0.00316 µM
[15] = second compound 0.316 µM, first compound 0.01 µM
[16] = second compound 0.316 µM, first compound 0.0316 µM
[17] = second compound 0.316 µM, first compound 0.1 µM
[18] = second compound 1 µM, first compound 0.000316 µM
[19] = second compound 1 µM, first compound 0.001 µM
[20] = second compound 1 µM, first compound 0.00316 µM
[21] = second compound 1 µM, first compound 0.01 µM
[22] = second compound 1 µM, first compound 0.0316 µM
[23] = second compound 1 µM, first compound 0.1 µM
[24] = second compound 3.16 µM, first compound 0.000316 µM
[25] = second compound 3.16 µM, first compound 0.001 µM
[26] = second compound 3.16 µM, first compound 0.00316 µM
[27] = second compound 3.16 µM, first compound 0.01 µM
[28] = second compound 3.16 µM, first compound 0.0316 µM
[29] = second compound 3.16 µM, first compound 0.1 µM
[30] = second compound 10 µM, first compound 0.000316 µM
[31] = second compound 10 µM, first compound 0.001 µM
[32] = second compound 10 µM, first compound 0.00316 µM
[33] = second compound 10 µM, first compound 0.01 µM
[34] = second compound 10 µM, first compound 0.0316 µM
[35] = second compound 10 µM, first compound 0.1 µM
[36] = second compound 0.1 µM, first compound 0.000949 µM
[37] = second compound 0.1 µM, first compound 0.003 µM
[38] = second compound 0.1 µM, first compound 0.00949 µM
[39] = second compound 0.1 µM, first compound 0.03 µM
[40] = second compound 0.1 µM, first compound 0.0949 µM
[41] = second compound 0.1 µM, first compound 0.3 µM
[42] = second compound 0.316 µM, first compound 0.000949 µM
[43] = second compound 0.316 µM, first compound 0.003 µM
[44] = second compound 0.316 µM, first compound 0.00949 µM
[45] = second compound 0.316 µM, first compound 0.03 µM
[46] = second compound 0.316 µM, first compound 0.0949 µM
[47] = second compound 0.316 µM, first compound 0.3 µM
[48] = second compound 1 µM, first compound 0.000949 µM
[49] = second compound 1 µM, first compound 0.003 µM
[50] = second compound 1 µM, first compound 0.00949 µM
[51] = second compound 1 µM, first compound 0.03 µM
[52] = second compound 1 µM, first compound 0.0949 µM
[53] = second compound 1 µM, first compound 0.3 µM
[54] = second compound 3.16 µM, first compound 0.000949 µM
[55] = second compound 3.16 µM, first compound 0.003 µM
[56] = second compound 3.16 µM, first compound 0.00949 µM
[57] = second compound 3.16 µM, first compound 0.03 µM
[58] = second compound 3.16 µM, first compound 0.0949 µM
[59] = second compound 3.16 µM, first compound 0.3 µM
[60] = second compound 10 µM, first compound 0.000949 µM
[61] = second compound 10 µM, first compound 0.003 µM
[62] = second compound 10 µM, first compound 0.00949 µM
[63] = second compound 10 µM, first compound 0.03 µM
[64] = second compound 10 µM, first compound 0.0949 µM
[65] = second compound 10 µM, first compound 0.3 µM

Compound: CC(C)CC(NC(=O)C(Cc1ccccc1)NC(=O)c1cnccn1)B(O)O (configuration not stated) + NC1CCC(NC2CC2c2ccccc2)CC1
- IC50 [1]: 1.2 nM
- IC50 [2]: 1.23 nM
- IC50 [3]: 1.05 nM
- IC50 [4]: 0.729 nM
- IC50 [5]: 0.478 nM
- viability, T/C [6]: 106%
- viability, T/C [7]: 59.2%
- viability, T/C [8]: 1.89%
- viability, T/C [9]: 0.42%
- viability, T/C [10]: 0.53%
- viability, T/C [11]: 3.01%
- viability, T/C [12]: 107%
- viability, T/C [13]: 60.7%
- viability, T/C [14]: 1.73%
- viability, T/C [15]: 0.23%
- viability, T/C [16]: 0.28%
- viability, T/C [17]: 0.27%
- viability, T/C [18]: 104%
- viability, T/C [19]: 52%
- viability, T/C [20]: 3.37%
- viability, T/C [21]: 0.18%
- viability, T/C [22]: 0.38%
- viability, T/C [23]: 0.72%
- viability, T/C [24]: 70%
- viability, T/C [25]: 42.4%
- viability, T/C [26]: 1.87%
- viability, T/C [27]: 0.16%
- viability, T/C [28]: 0.08%
- viability, T/C [29]: 0.54%
- viability, T/C [30]: 58.9%
- viability, T/C [31]: 34.1%
- viability, T/C [32]: 0.9%
- viability, T/C [33]: 0.23%
- viability, T/C [34]: 1.54%
- viability, T/C [35]: 1.08%

Compound: CCc1c2c(nc3ccc(O)cc13)-c1cc3c(c(=O)n1C2)COC(=O)[C@]3(O)CC + NC1CC1c1ccc(-c2cccc(O)c2)cc1
- IC50 [1]: < 0.949 nM
- IC50 [2]: < 0.949 nM
- IC50 [3]: < 0.949 nM
- IC50 [4]: < 0.949 nM
- IC50 [5]: < 0.949 nM
- viability, T/C [36]: 22.7%
- viability, T/C [37]: 19.7%
- viability, T/C [38]: 18.3%
- viability, T/C [39]: 4.83%
- viability, T/C [40]: 1.03%
- viability, T/C [41]: 0.74%
- viability, T/C [42]: 22.5%
- viability, T/C [43]: 22%
- viability, T/C [44]: 19.4%
- viability, T/C [45]: 5.07%
- viability, T/C [46]: 0.91%
- viability, T/C [47]: 0.54%
- viability, T/C [48]: 23.9%
- viability, T/C [49]: 20.1%
- viability, T/C [50]: 17.1%
- viability, T/C [51]: 5.94%
- viability, T/C [52]: 0.68%
- viability, T/C [53]: 0.61%
- viability, T/C [54]: 22.4%
- viability, T/C [55]: 20.1%
- viability, T/C [56]: 18.4%
- viability, T/C [57]: 5.48%
- viability, T/C [58]: 0.85%
- viability, T/C [59]: 0.54%
- viability, T/C [60]: 18.5%
- viability, T/C [61]: 20.4%
- viability, T/C [62]: 13.1%
- viability, T/C [63]: 1.68%
- viability, T/C [64]: 0.74%
- viability, T/C [65]: 0.5%

Compound: CCc1c2c(nc3ccc(O)cc13)-c1cc3c(c(=O)n1C2)COC(=O)[C@]3(O)CC + NC1CCC(NC2CC2c2ccccc2)CC1
- IC50 [1]: < 0.949 nM
- IC50 [2]: < 0.949 nM
- IC50 [3]: < 0.949 nM
- IC50 [4]: < 0.949 nM
- IC50 [5]: < 0.949 nM
- viability, T/C [36]: 17.1%
- viability, T/C [37]: 12.7%
- viability, T/C [38]: 12%
- viability, T/C [39]: 14%
- viability, T/C [40]: 5.37%
- viability, T/C [41]: 2.95%
- viability, T/C [42]: 17.7%
- viability, T/C [43]: 13.5%
- viability, T/C [44]: 12%
- viability, T/C [45]: 16%
- viability, T/C [46]: 5.44%
- viability, T/C [47]: 2.86%
- viability, T/C [48]: 19.1%
- viability, T/C [49]: 14.6%
- viability, T/C [50]: 13.7%
- viability, T/C [51]: 15.5%
- viability, T/C [52]: 4.76%
- viability, T/C [53]: 2.64%
- viability, T/C [54]: 17%
- viability, T/C [55]: 15.3%
- viability, T/C [56]: 16.5%
- viability, T/C [57]: 13.6%
- viability, T/C [58]: 4.18%
- viability, T/C [59]: 1.91%
- viability, T/C [60]: 13.9%
- viability, T/C [61]: 14%
- viability, T/C [62]: 20.1%
- viability, T/C [63]: 13.4%
- viability, T/C [64]: 3.42%
- viability, T/C [65]: 1.8%

Compound: Cn1ncnc1C1c2n[nH]c(=O)c3cc(F)cc(c23)NC1c1ccc(F)cc1 (configuration not stated) + NC1CC1c1ccc(-c2cccc(O)c2)cc1
- IC50 [1]: > 100 nM
- IC50 [2]: 49 nM
- IC50 [3]: 48.1 nM
- IC50 [4]: 51.5 nM
- IC50 [5]: 0.479 nM
- viability, T/C [6]: 86.3%
- viability, T/C [7]: 87.6%
- viability, T/C [8]: 74.2%
- viability, T/C [9]: 77%
- viability, T/C [10]: 62.4%
- viability, T/C [11]: 60.4%
- viability, T/C [12]: 64.4%
- viability, T/C [13]: 61%
- viability, T/C [14]: 60.6%
- viability, T/C [15]: 57.1%
- viability, T/C [16]: 56.2%
- viability, T/C [17]: 42.7%
- viability, T/C [18]: 62.4%
- viability, T/C [19]: 61.5%
- viability, T/C [20]: 57.2%
- viability, T/C [21]: 51.2%
- viability, T/C [22]: 53.5%
- viability, T/C [23]: 47.4%
- viability, T/C [24]: 66.6%
- viability, T/C [25]: 69.4%
- viability, T/C [26]: 67.4%
- viability, T/C [27]: 55.3%
- viability, T/C [28]: 49.2%
- viability, T/C [29]: 48.7%
- viability, T/C [30]: 51.9%
- viability, T/C [31]: 46.5%
- viability, T/C [32]: 43%
- viability, T/C [33]: 42.5%
- viability, T/C [34]: 33.1%
- viability, T/C [35]: 32.2%

Compound: COc1ccc([C@@H](O)c2cc(-c3ncnc4cc(N5CCOCC5)ccc34)c(F)cc2Cl)nn1
- viability, T/C (compound 0.0316 µM): 93.7% and 82%
- viability, T/C (compound 0.1 µM): 76.6% and 85.5%
- viability, T/C (compound 0.316 µM): 53.9% and 64.1%
- viability, T/C (compound 1 µM): 39.6% and 43.1%
- viability, T/C (compound 3.16 µM): 27.3% and 22.8%
- viability, T/C (compound 10 µM): 23.2% and 13.2%
- IC50 (curve of compound): 449 nM and 700 nM

The next lines start with results.

- IC50 (compound alone, run of 01/18/2022): > 10000 nM
Compound: NC1CCC(NC2CC2c2ccccc2)CC1 (configuration not stated)
- viability, T/C (compound 0.1 µM): 102% [middle of 25 runs]
- viability, T/C (compound 0.316 µM): 106% and 102%
- viability, T/C (compound 1 µM): 99.7% [middle of 25 runs]
- viability, T/C (compound 10 µM): 61% [middle of 23 runs]

- IC50 (curve of compound): 1.09 nM and < 0.316 nM
Compound: CC(C)CC(NC(=O)C(Cc1ccccc1)NC(=O)c1cnccn1)B(O)O (configuration not stated)
- viability, T/C (compound 0.000316 µM): 104% and 34.9%
- viability, T/C (compound 0.00316 µM): 1.86% and 0.16%
- viability, T/C (compound 0.01 µM): 0.35% and 0.17%
- viability, T/C (compound 0.0316 µM): 0.31% and 0.14%
- viability, T/C (compound 0.1 µM): 0.31% and 0.17%

- IC50 (curve of compound): < 0.949 nM
Compound: Nc1ccn(C2OC(CO)C(O)C2(F)F)c(=O)n1 (configuration not stated)
- viability, T/C (compound 0.000949 µM): 20.4% and 39.3%
- viability, T/C (compound 0.003 µM): 17.2% and 31%
- viability, T/C (compound 0.00949 µM): 15.5% and 19.9%
- viability, T/C (compound 0.03 µM): 12.6% and 17.8%
- viability, T/C (compound 0.0949 µM): 8.77% and 15.2%
- viability, T/C (compound 0.3 µM): 5.47% and 14%

- IC50 (curve of compound): > 1000 nM
Compound: Nc1ncn(C2CC(O)C(CO)O2)c(=O)n1 (configuration not stated)
- viability, T/C (compound 0.00316 µM): 99.5% and 83.9%
- viability, T/C (compound 0.01 µM): 95.3% and 91.9%
- viability, T/C (compound 0.0316 µM): 83.2% and 87.7%
- viability, T/C (compound 0.1 µM): 75.1% and 78.5%
- viability, T/C (compound 0.316 µM): 64.4% and 69.5%
- viability, T/C (compound 1 µM): 53.7% and 56.2%
